The structures appear in SMILES notation. Active and inactive are the calls of the source.

Consider one compound from ChEMBL document CHEMBL4725372, “Rational Design of Suprastat: A Novel Selective Histone Deacetylase 6 Inhibitor with the Ability to Potentiate Immunotherapy in Melanoma Models” (J Med Chem, 2020).

One series concerns the target T1, Histone deacetylase 11 (Homo sapiens, UniProt Q96DB2).
T1 sequence (Q96DB2 whole entry): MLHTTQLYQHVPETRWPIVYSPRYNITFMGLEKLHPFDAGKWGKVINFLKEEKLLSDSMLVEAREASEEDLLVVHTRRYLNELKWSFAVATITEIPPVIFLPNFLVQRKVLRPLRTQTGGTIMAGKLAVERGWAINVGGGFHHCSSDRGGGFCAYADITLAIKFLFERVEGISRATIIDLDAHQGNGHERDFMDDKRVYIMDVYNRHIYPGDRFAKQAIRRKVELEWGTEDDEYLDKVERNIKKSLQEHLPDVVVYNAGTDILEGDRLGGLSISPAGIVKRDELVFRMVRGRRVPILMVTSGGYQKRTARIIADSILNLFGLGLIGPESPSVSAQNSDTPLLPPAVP
In words: Inhibition of human HDAC11 expressed in HEK293/T17 cells pre-incubated for 10 mins before […] addition and measured after 30 mins by fluorescence-based assay. The format is cell-based.

The subject of series [1] is HEK293. In words: Selectivity index, ratio of IC50 for human HDAC2 expressed in HEK293/T17 cells (unknown origin) to human HDAC6 expressed in HEK293/T17 cells. It counts as cell-based.
For series [2], the system named is HEK293. In words: Selectivity index, ratio of IC50 for human HDAC4 expressed in HEK293/T17 cells (unknown origin) to human HDAC6 expressed in HEK293/T17 cells. The format is cell-based.
Series [3] deals with HEK293. Description: Selectivity index, ratio of IC50 for human HDAC5 expressed in HEK293/T17 cells (unknown origin) to human HDAC6 expressed in HEK293/T17 cells. The format is cell-based.
Series [4] concerns HEK293. In words: Selectivity index, ratio of IC50 for human HDAC7 expressed in HEK293/T17 cells (unknown origin) to human HDAC6 expressed in HEK293/T17 cells. The format is cell-based.
For series [5], the system named is HEK293. Description: Selectivity index, ratio of IC50 for human HDAC8 expressed in HEK293/T17 cells (unknown origin) to human HDAC6 expressed in HEK293/T17 cells. It counts as cell-based.
Series [6] in a line: Half life in PBS by LC-MS/MS analysis. The format is physicochemical.
Series [7] can be described thus: Protein binding in human plasma at 10 uM incubated for 1 hr by LC-MS/MS analysis. The format is ADME, cell-free. The following applies: read-out: PPB (converted).
Series [8] concerns the target T2, Protein deacetylase HDAC6 (Mus musculus) (UniProt Q9Z2V5).
T2 sequence (whole entry): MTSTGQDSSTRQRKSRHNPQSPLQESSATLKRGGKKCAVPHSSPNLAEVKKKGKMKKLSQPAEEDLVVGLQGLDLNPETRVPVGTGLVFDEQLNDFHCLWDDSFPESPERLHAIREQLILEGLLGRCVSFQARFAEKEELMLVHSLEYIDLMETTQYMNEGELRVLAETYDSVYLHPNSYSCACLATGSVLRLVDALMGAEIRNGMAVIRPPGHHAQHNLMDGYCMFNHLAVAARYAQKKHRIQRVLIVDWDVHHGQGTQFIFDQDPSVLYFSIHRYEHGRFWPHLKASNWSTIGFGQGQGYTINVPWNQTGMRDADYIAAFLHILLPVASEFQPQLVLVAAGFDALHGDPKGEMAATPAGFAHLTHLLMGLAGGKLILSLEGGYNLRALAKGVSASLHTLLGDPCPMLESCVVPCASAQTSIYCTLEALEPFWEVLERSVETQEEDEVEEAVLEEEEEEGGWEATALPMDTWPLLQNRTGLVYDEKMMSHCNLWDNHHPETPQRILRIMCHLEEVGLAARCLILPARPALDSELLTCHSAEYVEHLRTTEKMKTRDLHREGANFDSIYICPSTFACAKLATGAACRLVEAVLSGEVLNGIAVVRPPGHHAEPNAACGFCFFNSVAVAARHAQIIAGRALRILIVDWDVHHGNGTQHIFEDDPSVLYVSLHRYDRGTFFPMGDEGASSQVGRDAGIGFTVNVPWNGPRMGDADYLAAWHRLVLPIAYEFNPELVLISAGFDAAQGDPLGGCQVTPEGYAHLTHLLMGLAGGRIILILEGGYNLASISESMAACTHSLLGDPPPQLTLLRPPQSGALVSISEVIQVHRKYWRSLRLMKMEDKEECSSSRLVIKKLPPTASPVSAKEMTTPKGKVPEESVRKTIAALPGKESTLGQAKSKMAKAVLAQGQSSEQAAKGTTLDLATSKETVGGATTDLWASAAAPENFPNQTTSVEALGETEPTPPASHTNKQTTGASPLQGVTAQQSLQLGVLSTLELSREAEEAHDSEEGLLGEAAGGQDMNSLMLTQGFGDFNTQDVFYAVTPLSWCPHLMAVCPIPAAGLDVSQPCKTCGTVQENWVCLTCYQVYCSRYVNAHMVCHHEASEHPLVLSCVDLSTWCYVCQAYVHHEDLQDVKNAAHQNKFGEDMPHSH
Description: Inhibition of HDAC6 in INFgamma and LPS-induced mouse bone marrow derived macrophages assessed as decrease in IL10 gene expression at 5 uM by quantitative PCR analysis. It counts as tissue-based. The following applies: Macrophage.

Another series relates to SM1. In words: Antitumor activity against mouse SM1 cells transplanted in C57BL/6 mouse assessed as decrease in tumor burden at 25 mg/kg, ip dosed 5 days per week before starting 15 mg/kg, ip anti-PD1 immune checkpoint blockade therapy. It counts as functional, organism-based. The conditions noted are these: time 5.0 day/week.
For series [9], the system named is Mus musculus. Description: Immunomodulatory activity in C57BL/6 mouse harboring mouse SM1 cells assessed as effect on number of F4/80+ CD80+ H2+ antitumor M1 macrophages at 25 mg/kg, ip dosed 5 days per week before starting 15 mg/kg, ip anti-PD1 immune checkpoint blockade therapy by flow cytometry. The conditions noted are these: time 5.0 day/week. It counts as functional, organism-based. (In general: Flow cytometry measures light scatter and fluorescence of single cells or particles in a stream.)

The test system of series [10] is Mus musculus. In words: Immunomodulatory activity in C57BL/6 mouse harboring mouse SM1 cells assessed as reduction in F4/80+ CD206+ pro-tumor M2 macrophages at 25 mg/kg, ip dosed 5 days per week before starting 15 mg/kg, ip anti-PD1 immune checkpoint blockade therapy by flow cytometry. It counts as functional, organism-based. The conditions noted are these: time 5.0 day/week.

Series [11] relates to Mus musculus. Description: Immunomodulatory activity in C57BL/6 mouse harboring mouse SM1 cells assessed as increase in CD8+ effector T-cells and effector memory cells at 25 mg/kg, ip dosed 5 days per week by flow cytometry. It counts as functional, organism-based. The following applies: time 5.0 day/week.
The subject of series [12] is Mus musculus. Description: Immunomodulatory activity in C57BL/6 mouse harboring mouse SM1 cells assessed as increase in CD8+ central memory cells at 25 mg/kg, ip dosed 5 days per week by flow cytometry. It counts as functional, organism-based. The following applies: time 5.0 day/week.
The subject of series [13] is Mus musculus. In words: Immunomodulatory activity in C57BL/6 mouse harboring mouse SM1 cells assessed as effect on immunosuppressive T-regs at 25 mg/kg, ip dosed 5 days per week by flow cytometry. It counts as functional, organism-based. The following applies: time 5.0 day/week.
Series [14] deals with Mus musculus. In words: Immunomodulatory activity in C57BL/6 mouse harboring mouse SM1 cells assessed as effect on immunosuppressive T-regs at 25 mg/kg, ip dosed 5 days per week before starting 15 mg/kg, ip anti-PD1 immune checkpoint blockade therapy by flow cytometry. The conditions noted are these: time 5.0 day/week. The format is functional, organism-based.
For series [15], the system named is Mus musculus. In words: Immunomodulatory activity in C57BL/6 mouse harboring mouse SM1 cells assessed as reduction in natural killer T cells at 25 mg/kg, ip dosed 5 days per week before by flow cytometry. The format is functional, organism-based. The following applies: time 5.0 day/week.

Usually IC50 stands for the concentration that inhibits the measured activity by half. Low readings indicate greater potency, high ones weaker potency. As a reminder, the half-life is the time needed for the level to fall by half in the phase considered. A low value points to fast loss. Consider `NCc1ccc(NC(=O)N(CCCCO)Cc2ccc(C(=O)NO)cc2)cc1`, for which, on Histone deacetylase 11, the IC50 was greater than 50 µM. Moreover, the Ratio IC50 stood at 440 with HEK293 [1]; 20600 with HEK293 [2]; 8550 in the series on HEK293 [3]; 3680 in the series on HEK293 [4]; 1250 with HEK293 [5]. In series [6], this compound gave a half-life greater than 24 h. The fraction unbound at 1 h, 10 µM in series [7] was 0.981. In addition, the inhibition entry in series [8] was “Active”. For the same compound, in the series with SM1, the TGI result was “Active”. Also, the outcome in the series on Mus musculus [9], with Mus musculus [13] and in the series on Mus musculus [14] was inactive. The result with Mus musculus [10], with Mus musculus [11], in the series with Mus musculus [12] and in the series on Mus musculus [15] was Active.
